Laboratory results as given in patent US20140045826A1, “METHODS AND COMPOSITIONS FOR TREATING NEURODEGENERATIVE DISEASES” (ARIAD PHARMACEUTICALS, INC., priority 2011, published 2014).

Legend:
[1] = mice and humans; cited from earlier work
[2] = target: ALK (Homo sapiens, UniProt Q9UM73); experiment: in vitro kinase assay; type: biochemical
[3] = target: T1, Aurora C (Homo sapiens, UniProt Q9UQB9); experiment: in vitro kinase assay; type: biochemical
T1 sequence (Q9UQB9 1-309): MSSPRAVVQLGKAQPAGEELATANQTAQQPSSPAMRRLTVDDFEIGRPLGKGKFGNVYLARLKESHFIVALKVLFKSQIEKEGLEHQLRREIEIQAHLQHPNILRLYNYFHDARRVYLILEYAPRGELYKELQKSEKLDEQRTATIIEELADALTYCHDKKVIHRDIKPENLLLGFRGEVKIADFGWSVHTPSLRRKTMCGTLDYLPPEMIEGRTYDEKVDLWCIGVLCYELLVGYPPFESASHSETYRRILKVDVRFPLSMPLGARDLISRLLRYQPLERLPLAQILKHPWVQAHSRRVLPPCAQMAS

[4] = target: T2, AXL (Homo sapiens, UniProt P30530); experiment: in vitro kinase assay; type: biochemical
T2 sequence (P30530 26-894): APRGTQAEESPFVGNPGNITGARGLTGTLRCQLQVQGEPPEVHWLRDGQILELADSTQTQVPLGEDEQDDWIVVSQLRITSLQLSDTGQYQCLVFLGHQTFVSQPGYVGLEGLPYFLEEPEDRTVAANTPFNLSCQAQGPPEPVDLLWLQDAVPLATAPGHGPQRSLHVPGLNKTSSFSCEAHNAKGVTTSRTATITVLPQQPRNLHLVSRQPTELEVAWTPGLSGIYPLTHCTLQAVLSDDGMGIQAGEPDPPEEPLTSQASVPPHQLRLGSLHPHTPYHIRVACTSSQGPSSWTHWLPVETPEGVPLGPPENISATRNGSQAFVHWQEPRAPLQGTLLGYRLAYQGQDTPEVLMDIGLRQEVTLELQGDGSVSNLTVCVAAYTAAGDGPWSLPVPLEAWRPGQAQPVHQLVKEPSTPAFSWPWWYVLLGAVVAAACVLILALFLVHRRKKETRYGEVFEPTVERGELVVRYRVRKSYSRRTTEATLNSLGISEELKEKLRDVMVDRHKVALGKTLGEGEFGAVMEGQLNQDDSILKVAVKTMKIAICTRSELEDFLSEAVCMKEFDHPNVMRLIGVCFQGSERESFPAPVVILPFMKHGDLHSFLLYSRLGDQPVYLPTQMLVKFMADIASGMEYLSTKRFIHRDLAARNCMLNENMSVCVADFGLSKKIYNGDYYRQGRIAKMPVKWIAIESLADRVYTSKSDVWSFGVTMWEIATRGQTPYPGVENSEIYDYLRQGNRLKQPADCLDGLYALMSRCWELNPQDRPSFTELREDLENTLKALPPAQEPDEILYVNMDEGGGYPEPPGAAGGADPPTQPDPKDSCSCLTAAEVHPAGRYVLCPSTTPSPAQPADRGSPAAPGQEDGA

[5] = target: T3, CTK (Homo sapiens, UniProt P42679); experiment: in vitro kinase assay; type: biochemical
T3 sequence (P42679 1-507): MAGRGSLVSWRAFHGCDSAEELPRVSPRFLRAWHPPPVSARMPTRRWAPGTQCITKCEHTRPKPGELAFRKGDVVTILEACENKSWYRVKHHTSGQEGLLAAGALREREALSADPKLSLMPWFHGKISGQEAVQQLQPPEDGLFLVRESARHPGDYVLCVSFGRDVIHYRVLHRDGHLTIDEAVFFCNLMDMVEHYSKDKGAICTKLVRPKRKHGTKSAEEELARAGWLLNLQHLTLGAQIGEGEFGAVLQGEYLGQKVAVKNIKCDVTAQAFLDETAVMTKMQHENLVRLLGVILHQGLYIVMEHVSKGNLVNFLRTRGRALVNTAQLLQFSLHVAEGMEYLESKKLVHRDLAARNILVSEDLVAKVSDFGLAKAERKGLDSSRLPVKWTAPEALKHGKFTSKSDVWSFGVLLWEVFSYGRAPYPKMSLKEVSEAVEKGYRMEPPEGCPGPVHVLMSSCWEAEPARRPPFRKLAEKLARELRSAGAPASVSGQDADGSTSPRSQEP

[6] = target: IRR (Homo sapiens, UniProt P14616); experiment: in vitro kinase assay; type: biochemical
[7] = target: T4, ITK (Homo sapiens, UniProt Q08881); experiment: in vitro kinase assay; type: biochemical
T4 sequence (Q08881 1-620): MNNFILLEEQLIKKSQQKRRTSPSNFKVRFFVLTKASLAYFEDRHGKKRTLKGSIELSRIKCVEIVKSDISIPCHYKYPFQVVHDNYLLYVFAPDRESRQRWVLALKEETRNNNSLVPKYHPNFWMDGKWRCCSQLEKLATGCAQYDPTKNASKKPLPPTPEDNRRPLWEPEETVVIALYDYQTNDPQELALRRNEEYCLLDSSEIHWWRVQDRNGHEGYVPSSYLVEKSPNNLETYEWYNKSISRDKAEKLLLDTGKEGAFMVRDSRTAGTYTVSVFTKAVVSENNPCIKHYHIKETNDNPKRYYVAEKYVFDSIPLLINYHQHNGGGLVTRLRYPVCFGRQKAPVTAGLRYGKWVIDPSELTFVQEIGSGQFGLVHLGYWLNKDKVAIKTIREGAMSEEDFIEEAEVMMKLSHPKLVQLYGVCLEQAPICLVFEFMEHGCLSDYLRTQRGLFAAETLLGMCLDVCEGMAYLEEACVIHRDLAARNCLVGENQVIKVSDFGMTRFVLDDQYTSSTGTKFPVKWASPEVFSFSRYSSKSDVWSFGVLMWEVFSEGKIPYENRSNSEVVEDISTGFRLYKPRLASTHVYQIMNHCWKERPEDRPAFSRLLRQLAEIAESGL

[8] = target: mTOR (Homo sapiens, UniProt P42345); experiment: in vitro kinase assay; type: biochemical
[9] = target: PKC8; experiment: in vitro kinase assay; type: biochemical
[10] = target: ROS (Homo sapiens, UniProt P08922); experiment: in vitro kinase assay; type: biochemical
[11] = target: TYK1 (Homo sapiens, UniProt P29376); experiment: in vitro kinase assay; type: biochemical
[12] = target: T5, ZAP70 (Homo sapiens, UniProt P43403); experiment: in vitro kinase assay; type: biochemical
T5 sequence (P43403 1-619): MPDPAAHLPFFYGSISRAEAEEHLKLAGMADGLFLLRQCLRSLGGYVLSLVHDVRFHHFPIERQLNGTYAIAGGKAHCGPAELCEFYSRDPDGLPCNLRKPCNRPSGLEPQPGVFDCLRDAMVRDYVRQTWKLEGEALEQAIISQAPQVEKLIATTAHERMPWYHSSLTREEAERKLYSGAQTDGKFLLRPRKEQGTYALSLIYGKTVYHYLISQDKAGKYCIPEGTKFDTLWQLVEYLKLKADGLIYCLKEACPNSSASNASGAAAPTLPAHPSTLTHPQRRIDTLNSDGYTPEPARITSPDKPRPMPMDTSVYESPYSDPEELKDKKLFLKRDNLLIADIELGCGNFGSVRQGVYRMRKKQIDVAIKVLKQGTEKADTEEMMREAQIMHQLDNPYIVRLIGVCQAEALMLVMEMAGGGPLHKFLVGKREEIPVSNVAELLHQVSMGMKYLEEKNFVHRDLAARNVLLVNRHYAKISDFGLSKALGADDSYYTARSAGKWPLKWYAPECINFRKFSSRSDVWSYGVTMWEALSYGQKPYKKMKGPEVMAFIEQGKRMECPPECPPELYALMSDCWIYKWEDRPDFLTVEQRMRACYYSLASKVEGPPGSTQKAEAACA

[13] = in vivo; settings: rat, plasma, po, 5 mg/kg
[14] = target: PGP efflux pump (Homo sapiens, UniProt P08183); experiment: substrate for the PGP efflux pump
[15] = phase 1 clinical trial, safety and tolerability

Chain of ROS (P08922 28-2347): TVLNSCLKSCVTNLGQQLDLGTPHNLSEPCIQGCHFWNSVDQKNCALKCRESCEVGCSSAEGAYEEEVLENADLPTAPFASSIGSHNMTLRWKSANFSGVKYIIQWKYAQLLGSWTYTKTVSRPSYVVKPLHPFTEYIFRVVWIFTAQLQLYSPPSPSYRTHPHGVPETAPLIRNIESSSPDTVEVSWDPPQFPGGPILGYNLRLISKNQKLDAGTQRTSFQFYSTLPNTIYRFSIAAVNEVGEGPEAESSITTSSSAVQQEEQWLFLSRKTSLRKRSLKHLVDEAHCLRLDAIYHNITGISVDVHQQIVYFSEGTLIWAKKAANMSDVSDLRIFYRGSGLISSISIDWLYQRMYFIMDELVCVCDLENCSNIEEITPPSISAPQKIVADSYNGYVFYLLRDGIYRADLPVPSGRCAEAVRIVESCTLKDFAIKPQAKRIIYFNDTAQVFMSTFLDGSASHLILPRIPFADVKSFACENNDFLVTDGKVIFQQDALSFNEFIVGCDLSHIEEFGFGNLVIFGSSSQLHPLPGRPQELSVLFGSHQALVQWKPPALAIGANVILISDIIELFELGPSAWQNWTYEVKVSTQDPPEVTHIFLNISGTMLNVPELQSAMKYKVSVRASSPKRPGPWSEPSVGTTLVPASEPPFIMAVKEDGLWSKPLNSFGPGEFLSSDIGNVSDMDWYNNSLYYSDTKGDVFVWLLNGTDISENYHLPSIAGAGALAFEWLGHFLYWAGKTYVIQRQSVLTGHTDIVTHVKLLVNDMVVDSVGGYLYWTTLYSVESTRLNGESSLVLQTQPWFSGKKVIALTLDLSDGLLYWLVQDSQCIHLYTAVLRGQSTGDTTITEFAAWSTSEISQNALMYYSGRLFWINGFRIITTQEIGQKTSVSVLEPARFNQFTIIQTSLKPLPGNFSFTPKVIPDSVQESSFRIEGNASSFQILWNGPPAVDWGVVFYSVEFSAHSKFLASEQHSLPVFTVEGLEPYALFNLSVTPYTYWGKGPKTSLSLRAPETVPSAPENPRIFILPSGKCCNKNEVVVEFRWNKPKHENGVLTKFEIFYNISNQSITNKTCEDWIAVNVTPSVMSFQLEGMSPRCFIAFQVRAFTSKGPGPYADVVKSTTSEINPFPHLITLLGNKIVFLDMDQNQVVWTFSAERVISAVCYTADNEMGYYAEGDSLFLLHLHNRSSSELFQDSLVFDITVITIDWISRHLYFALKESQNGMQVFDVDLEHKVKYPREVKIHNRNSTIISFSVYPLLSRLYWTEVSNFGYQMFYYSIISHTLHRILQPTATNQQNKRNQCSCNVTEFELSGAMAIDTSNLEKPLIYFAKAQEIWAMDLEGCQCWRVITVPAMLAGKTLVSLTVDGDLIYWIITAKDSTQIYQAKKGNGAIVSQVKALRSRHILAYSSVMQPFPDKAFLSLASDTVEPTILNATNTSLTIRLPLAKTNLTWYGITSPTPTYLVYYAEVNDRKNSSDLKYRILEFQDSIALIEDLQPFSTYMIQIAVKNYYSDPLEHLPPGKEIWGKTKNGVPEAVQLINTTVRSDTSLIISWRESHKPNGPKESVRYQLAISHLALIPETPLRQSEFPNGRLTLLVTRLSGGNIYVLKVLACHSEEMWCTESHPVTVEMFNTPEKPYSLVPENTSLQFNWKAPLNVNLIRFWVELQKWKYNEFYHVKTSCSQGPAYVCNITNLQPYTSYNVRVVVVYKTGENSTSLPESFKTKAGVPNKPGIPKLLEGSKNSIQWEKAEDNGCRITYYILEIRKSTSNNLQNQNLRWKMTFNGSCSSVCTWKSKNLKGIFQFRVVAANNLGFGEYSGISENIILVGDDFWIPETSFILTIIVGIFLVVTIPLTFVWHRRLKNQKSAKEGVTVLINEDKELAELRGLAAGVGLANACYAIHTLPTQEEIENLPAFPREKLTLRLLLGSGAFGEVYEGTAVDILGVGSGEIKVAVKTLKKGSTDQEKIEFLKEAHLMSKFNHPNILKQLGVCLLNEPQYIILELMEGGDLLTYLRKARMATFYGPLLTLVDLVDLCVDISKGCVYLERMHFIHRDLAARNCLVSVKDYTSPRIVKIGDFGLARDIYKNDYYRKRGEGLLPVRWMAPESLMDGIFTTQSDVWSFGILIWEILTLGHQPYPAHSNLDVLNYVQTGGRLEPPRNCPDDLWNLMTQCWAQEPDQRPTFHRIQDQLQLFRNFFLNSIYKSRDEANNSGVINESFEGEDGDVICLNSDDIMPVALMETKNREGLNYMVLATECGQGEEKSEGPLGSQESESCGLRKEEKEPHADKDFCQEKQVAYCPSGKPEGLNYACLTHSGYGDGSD
Chain of ALK (Q9UM73 19-1620): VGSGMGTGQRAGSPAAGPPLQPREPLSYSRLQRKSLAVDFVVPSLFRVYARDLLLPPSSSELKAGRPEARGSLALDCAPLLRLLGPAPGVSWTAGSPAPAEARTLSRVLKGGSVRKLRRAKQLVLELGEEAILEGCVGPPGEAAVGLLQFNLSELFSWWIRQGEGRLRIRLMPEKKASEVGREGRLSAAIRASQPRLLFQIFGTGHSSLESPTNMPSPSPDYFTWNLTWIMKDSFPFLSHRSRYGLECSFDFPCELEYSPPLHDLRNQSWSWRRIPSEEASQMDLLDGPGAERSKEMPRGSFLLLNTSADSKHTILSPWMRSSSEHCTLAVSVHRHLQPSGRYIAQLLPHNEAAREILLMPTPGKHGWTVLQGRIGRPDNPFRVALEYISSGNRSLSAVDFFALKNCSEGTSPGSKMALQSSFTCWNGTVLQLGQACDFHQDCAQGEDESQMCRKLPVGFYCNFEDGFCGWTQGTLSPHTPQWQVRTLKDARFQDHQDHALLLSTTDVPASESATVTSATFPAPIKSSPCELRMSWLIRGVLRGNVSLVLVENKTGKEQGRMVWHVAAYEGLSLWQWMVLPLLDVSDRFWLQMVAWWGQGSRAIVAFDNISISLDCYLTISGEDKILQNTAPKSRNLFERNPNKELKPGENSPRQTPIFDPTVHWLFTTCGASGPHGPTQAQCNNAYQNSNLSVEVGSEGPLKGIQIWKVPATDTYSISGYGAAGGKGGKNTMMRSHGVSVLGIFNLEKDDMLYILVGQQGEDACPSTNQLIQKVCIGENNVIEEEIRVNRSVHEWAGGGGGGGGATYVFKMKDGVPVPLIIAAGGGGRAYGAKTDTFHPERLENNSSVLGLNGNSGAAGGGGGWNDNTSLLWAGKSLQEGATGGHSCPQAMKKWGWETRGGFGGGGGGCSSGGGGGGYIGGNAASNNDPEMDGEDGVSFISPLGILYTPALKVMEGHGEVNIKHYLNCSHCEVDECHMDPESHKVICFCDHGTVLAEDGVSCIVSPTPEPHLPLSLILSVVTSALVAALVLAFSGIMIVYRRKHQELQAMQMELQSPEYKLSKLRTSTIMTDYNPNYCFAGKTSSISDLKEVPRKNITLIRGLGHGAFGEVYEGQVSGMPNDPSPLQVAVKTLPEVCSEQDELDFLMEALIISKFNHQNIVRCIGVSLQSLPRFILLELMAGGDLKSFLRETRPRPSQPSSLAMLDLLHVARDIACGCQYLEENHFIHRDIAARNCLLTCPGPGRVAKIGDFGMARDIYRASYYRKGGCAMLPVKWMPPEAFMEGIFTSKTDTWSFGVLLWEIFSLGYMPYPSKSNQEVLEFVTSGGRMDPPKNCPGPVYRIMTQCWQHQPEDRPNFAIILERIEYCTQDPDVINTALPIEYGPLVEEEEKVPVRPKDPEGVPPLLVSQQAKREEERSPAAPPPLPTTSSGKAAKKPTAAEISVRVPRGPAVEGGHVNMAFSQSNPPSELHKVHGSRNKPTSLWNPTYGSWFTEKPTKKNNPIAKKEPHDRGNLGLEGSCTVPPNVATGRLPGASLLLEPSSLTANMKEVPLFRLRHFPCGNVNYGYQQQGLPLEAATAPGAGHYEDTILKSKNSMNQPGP
Chain of TYK1 (P29376 17-864, species assumed): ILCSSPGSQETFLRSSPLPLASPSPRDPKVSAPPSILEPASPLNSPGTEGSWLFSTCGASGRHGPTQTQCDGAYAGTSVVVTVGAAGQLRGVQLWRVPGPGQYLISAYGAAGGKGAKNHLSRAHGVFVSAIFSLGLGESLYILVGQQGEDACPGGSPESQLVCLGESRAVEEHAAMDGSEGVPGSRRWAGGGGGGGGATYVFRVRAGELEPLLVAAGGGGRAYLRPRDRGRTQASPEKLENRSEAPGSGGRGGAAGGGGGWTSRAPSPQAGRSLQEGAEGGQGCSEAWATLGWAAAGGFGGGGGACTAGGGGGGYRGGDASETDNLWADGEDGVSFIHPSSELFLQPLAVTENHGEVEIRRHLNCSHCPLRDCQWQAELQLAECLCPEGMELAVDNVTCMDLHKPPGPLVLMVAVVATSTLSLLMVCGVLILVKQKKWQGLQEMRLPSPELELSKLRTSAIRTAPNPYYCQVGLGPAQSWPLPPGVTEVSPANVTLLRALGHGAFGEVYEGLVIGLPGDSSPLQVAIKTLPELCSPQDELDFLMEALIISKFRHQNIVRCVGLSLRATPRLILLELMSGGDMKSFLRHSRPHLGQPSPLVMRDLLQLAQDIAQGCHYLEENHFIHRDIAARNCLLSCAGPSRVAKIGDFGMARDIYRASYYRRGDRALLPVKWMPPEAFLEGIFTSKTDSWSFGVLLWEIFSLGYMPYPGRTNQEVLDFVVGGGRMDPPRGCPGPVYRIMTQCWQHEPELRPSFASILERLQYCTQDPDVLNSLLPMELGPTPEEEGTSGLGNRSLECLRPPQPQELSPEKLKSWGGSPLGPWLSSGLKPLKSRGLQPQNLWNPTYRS

SMILES: Cc1ccc(NC(=O)c2ccc(CN3CCN(C)CC3)cc2)cc1Nc1nccc(-c2cccnc2)n1 [STI-571]
- penetration of the blood-brain barrier [1]: poor penetration of the blood-brain barrier

SMILES: Cc1ccc(C(=O)Nc2ccc(CN3CCN(C)CC3)c(C(F)(F)F)c2)cc1C#Cc1cnc2cccnn12 [ponatinib, 3-(Imidazo[1,2-b]pyridazin-3-ylethynyl)-4-methyl-N-(4-((4-methylpiperazin-1-yl)methyl)-3-(trifluoromethyl)phenyl)benzamide]
- IC50 [2]: > 1000 nM
- IC50 [3]: > 1000 nM
- IC50 [4]: > 1000 nM
- IC50 [5]: > 1000 nM
- IC50 [6]: > 1000 nM
- IC50 [7]: > 1000 nM
- IC50 [8]: > 1000 nM
- IC50 [9]: > 1000 nM
- IC50 [10]: > 1000 nM
- IC50 [11]: > 1000 nM
- IC50 [12]: > 1000 nM
- Cmax [13]: 175 ng/mL
- substrate for the PGP efflux pump [14]: poor substrate
- dose limiting toxicities (DLTs) ([15]; 45 mg cohort): a reversible rash was seen with one patient
- dose limiting toxicities (DLTs) ([15]; 60 mg cohort): four patients developed reversible pancreatic related DLT (pancreatitis)
- dose limiting toxicities (DLTs) ([15]; 2 to 30 mg cohorts): no dose limiting toxicities (DLTs) were observed
- maximum tolerated dose (MTD) ([15]; patients with refractory hematological cancers, oral, dose escalation 2-60 mg): 45 mg
- drug-related adverse events of any grade: anemia ([15]; phase 1 patients): 12%
- drug-related adverse events of any grade: lipase increase ([15]; phase 1 patients): 12%
- drug-related adverse events of any grade: nausea ([15]; phase 1 patients): 12%
- drug-related adverse events of any grade: rash ([15]; phase 1 patients): 12%
- drug-related adverse events of any grade: thrombocytopenia ([15]; phase 1 patients): 25%
- tolerability ([15]; phase 1 study conclusion): well tolerated
